Source: patent publication US9937250B2, “Immunogenic tumor associated stromal cell antigen peptides and methods of their use” (University of Pittsburgh—Of the Commonwealth System of …, priority 2011, dated 2018)
Where no end group is shown, it is not given here.

Assays:
[1] = tested on: CD8+ T cells from HLA-A2+ normal donors or HLA-A2+ melanoma patients; experiment: In vitro sensitization of human CD8+ T cells with TASA peptide-pulsed autologous DC, IFN-γ ELISA against peptide-pulsed T2 cells; assay type: cell-based
Experimental: The indicated peptides were pulsed onto autologous DC and used to prime and boost CD8^+ T cells isolated from the peripheral blood of eight normal HLA-A2^+ donors or ten HLA-A2^+ patients with melanoma. Seven days after the primary in vitro sensitization (IVS) (melanoma patients) or a secondary IVS boost (normal donors), T cells were analyzed for their reactivity against HLA-A2^+ T2 cells pulsed with the relevant peptide vs. the negative control HIV-nef190-198 peptide. After 24 hours of co-culture, cell-free supernatants were analyzed for levels of secreted IFN-γ using a commercial ELISA. Data are reported in Bar and Whisker plots, with p-values provided for paired pre- versus post-IVS data from normal donors and patients. In addition, p<0.05 was detected for MEL-Post versus ND-Post for the following peptides: DLK1 (309), NG2 (770), NG2 (2238), PDGFRβ (891) and RGS5 (5).
In vitro assessment of human CD8^+ T cell responses against TASA- or TAA-derived peptides. Peripheral blood mononuclear cells (PBMC) were obtained by venipuncture or leukapheresis from HLA-A2^+ normal donors or HLA-A2^+ melanoma patients with written consent under IRB-approved protocols (Table 3). CD8^+ T cells were then isolated by MACS (Miltenyi Biotec, Auburn, Calif.) and either not stimulated or stimulated with autologous, TASA peptide-pulsed DC as previously described (Tatsumi et al., Cancer Res., 63:4481-4489, 2003). Normal donor T cells were stimulated with TASA peptide-pulsed DC twice on a weekly schedule, with responder T cells harvested for analysis of their specificity 5 days after the booster stimulation (i.e. day 12 of T cell-DC co-culture). Melanoma patient CD8^+ T cells were analyzed after a single round of stimulation with TASA peptide-pulsed, autologous DC (i.e. day 5 of T cell-DC co-culture) as indicated. For DC-based stimulations, DC were pulsed with an equimolar (1 μM each) pool of the TASA peptides (Table 4) for 4 h at 37° C. at 5% CO2 tension. These antigen-loaded DC were then used to stimulate autologous CD8^+ T cells at a T cell-to-DC ratio of 10:1 to generate a bulk population of responder T cells. T cells were maintained in IMDM media supplemented with 10% human AB serum, 100 U/ml penicillin, […], 10 mM L-glutamine and MEM non-essential amino acids (all reagents from Invitrogen, except human AB serum that was purchased from Sigma-Aldrich, St. Louis, Mo.). Responder CD8^+ T cells were analyzed for reactivity against control (HLA-A2^+) T2 cells or T2 cells pulsed with individual TASA or TAA peptides (1 μM for 4 h at 37° C.) at a CD8^+ T cell-to-T2 cell ratio of 5:1 for 24 h. Harvested cell-free supernatants were consequently assessed for hIFN-γ content using a specific ELISA (BD Biosciences, San Diego, Calif.) with a lower detection limit of 4.7 pg/ml.
CD8^+ T cells from HLA-A2^+ normal donors or HLA-A2^+ melanoma patients recognize TASA-derived peptides in vitro. To assess whether the TASA-derived peptides identified in the HHD tumor model were also capable of being recognized by human CD8^+ T cells, IVS was performed using T cells isolated from the peripheral blood of HLA-A2^+ donors or HLA-A2^+ patients with melanoma. DC were pulsed with peptides derived from a given TASA for 4 h at 37° C., then washed and used as stimulator cells for autologous CD8^+ T cells. In cases where more than one peptide existed for a given protein, DC were pulsed with an equimolar (10 μM) mixture of each peptide. Two rounds of IVS using TASA for normal donors and a single-round of IVS using TASA for melanoma patients was applied. HLA-A2^+ normal donors (FIG. 4; Tables 4, 5A and 5B) and melanoma patients (FIG. 4; Tables 4, 5A and 5B) were each capable of recognizing many of the TASA-derived peptides.

[2] = tested on: MC38 colon carcinoma; experiment: MC38 protection (prophylactic vaccination) model; assay type: in vivo, HHD mice; design: key to Anti-tumor efficacy in MC38 protection model: +/-, p < 0.05 versus DC only for 2 consecutive time points; - not significant at any time point analyzed; conditions: for Anti-tumor efficacy in MC38 protection model: DC.IL12 pulsed with a pool of 1 or more peptides derived from the indicated TBVA, vaccination d-14, d-7; for Protection against HLA-A2neg MC38 tumor challenge: immunization days -14 and -7, tumor challenge day 0 (FIG. 9B)
Text: FIGS. 9A-9B show a series of graphs illustrating induction of specific/protective CD8^+ T cells reactive against TASA as a consequence of DC/peptide-based vaccination. In FIG. 9A, HHD mice (five animals/cohort) were vaccinated twice (d-14, d-7) subcutaneously with PBS or with isologous DC.IL12 pulsed with PBS or synthetic peptides (Table 6) derived from the indicated TASA. In cases where more than 1 peptide was identified for a given target antigen, an equimolar pool of the indicated peptides (each 10 μM) was pulsed onto DC.IL12 and used for vaccination in the relevant cohort. One week after the second immunization, spleens were harvested and splenic CD8^+ T cells isolated using MACS-beads (Miltenyi). T cells were stimulated in vitro for 48 h using the HLA-A2^+ T2 cell line pulsed with relevant TASA vs. irrelevant HIV-nef190-198 ([…]; ref. 24) peptides. Cell-free supernatants were then recovered and IFN-γ levels by ELISA. Data are reported as mean+/−SD for triplicate ELISA determinations, and are representative of 3 independent experiments performed. *p<0.05 vs. HIV-nef control peptide responses. In FIG. 9B, HHD mice were vaccinated twice (days −14 and −7; right flank) subcutaneously with PBS or with isologous DC.IL12 pulsed with PBS or synthetic TASA peptides as indicated in FIG. 1A. In cases where more than 1 peptide is identified for a given target antigen, an equimolar pool of the indicated peptides (each 10 μM) was pulsed onto DC.IL12 and used for vaccination in the relevant cohort. One week after the booster vaccine (i.e. day zero), animals were challenged subcutaneously on their left flank with 2×10^6 MC38 colon carcinoma cells. Tumor growth was then monitored every 3-4 days through day 24. All data represent mean tumor area (in mm^2)+/−SD determined from 5 mice/cohort, and are representative of three independent experiments performed. *p<0.05 versus DC only on the indicated days.
Vaccine Experiments. For prophylactic experiments, HHD mice were immunized subcutaneously on the right flank with 100 μl PBS or PBS containing 10^6 syngenic DC.IL12 cells that had been untreated or pre-pulsed for 4 h at 37° C. with 10 μM synthetic peptide(s). Immunizations occurred on days −14 and −7, with mice subsequently receiving injections of MC38 (2×10^6) tumor cells in the left flank on d0. In all cases, treatment groups contained 5 mice per cohort. For analysis of tumor cellular composition in repeat experiments, MC38 tumors were isolated by surgical resection 10 days after tumor inoculation and prepared for fluorescence imaging, as described below. […] Mice were then untreated or treated with control, syngenic DC.IL12 or DC.IL12 (10^6 cells injected subcutaneously in the left flank on days 7 and 14) pulsed with synthetic TBVA peptides. In some assays, as indicated, in vivo antibody depletions (on days 6, 13 and 20 post-tumor inoculation to assess early involvement or on days 60 and 67 or 180 and 187 to assess late involvement) of protective CD4^+ T cells or CD8^+ T cells were performed and monitored as previously described (Zhao et al., Mol Ther., 19:805-814, 2011). In all cases, tumor size (area) was monitored every 3-4 days and is reported as mean+/−SD in mm^2.
The DLK1, EphA2, HBB, NG2, NRP1, NRP2, PDGFRβ, PSMA, RGS5, TEM1, VEGFR1 and VEGFR2 antigens were expressed in situ by blood vessel cells in the MC38 colon carcinoma TME (FIG. 14). Protection of HHD mice against a challenge with HLA-A2^neg MC38 tumor cells injected subcutaneously on day zero was assayed with immunization with TBVA-derived peptides on days −14 and −7. […]

Substance | Specific CD8+ T cell Production of IFN-γ in Response to TASA ([1]; donor Mel1, melanoma patient) | Specific CD8+ T cell Production of IFN-γ in Response to TASA ([1]; donor Mel2, melanoma patient) | Specific CD8+ T cell Production of IFN-γ in Response to TASA ([1]; donor Mel4, melanoma patient) | Specific CD8+ T cell Production of IFN-γ in Response to TASA ([1]; donor Mel5, melanoma patient) | Anti-tumor efficacy in MC38 protection model [2] | Protection against HLA-A2neg MC38 tumor challenge [2] | Specific CD8+ T cell Production of IFN-γ in Response to TASA ([1]; donor Mel8, melanoma patient) | Specific CD8+ T cell Production of IFN-γ in Response to TASA ([1]; donor ND2, normal donor) | Specific CD8+ T cell Production of IFN-γ in Response to TASA ([1]; donor ND4, normal donor) | Specific CD8+ T cell Production of IFN-γ in Response to TASA ([1]; donor Mel6, melanoma patient) | Specific CD8+ T cell Production of IFN-γ in Response to TASA ([1]; donor Mel7, melanoma patient) | Specific CD8+ T cell Production of IFN-γ in Response to TASA ([1]; donor ND5, normal donor)
NRP2: equimolar pool of the three NRP2-derived peptides (214-222, 328-336, 436-444), pulsed onto DC or DC.IL12 (chain 1 DIWDGIPHV; chain 2 YLQVDLRFL; chain 3 NMLGMLSGL; also: equimolar pool of three peptides; listed as Homo sapiens) | + (Human responses were designated as + if T cell reactivity against T2 cells presenting the indicated peptide (IFN-γ ELISA) was >30 pg/ml and more than 2 fold higher than reactivity versus T2 cells pulsed with the negative control HIV-nef190-198 peptide) | + (Human responses were designated as + if T cell reactivity against T2 cells presenting the indicated peptide (IFN-γ ELISA) was >30 pg/ml and more than 2 fold higher than reactivity versus T2 cells pulsed with the negative control HIV-nef190-198 peptide) | + (Human responses were designated as + if T cell reactivity against T2 cells presenting the indicated peptide (IFN-γ ELISA) was >30 pg/ml and more than 2 fold higher than reactivity versus T2 cells pulsed with the negative control HIV-nef190-198 peptide) | + (Human responses were designated as + if T cell reactivity against T2 cells presenting the indicated peptide (IFN-γ ELISA) was >30 pg/ml and more than 2 fold higher than reactivity versus T2 cells pulsed with the negative control HIV-nef190-198 peptide) | - | minimal protection |  |  |  |  |  | 
PDGFRβ: PDGFRβ-derived peptide 890-898 pulsed onto DC or DC.IL12 (ILLWEIFTL; listed as Homo sapiens) |  |  |  |  |  | effective in preventing HLA-A2^neg MC38 tumor establishment or they resulted in the regression of tumors | + (Human responses were designated as + if T cell reactivity against T2 cells presenting the indicated peptide (IFN-γ ELISA) was >30 pg/ml and more than 2 fold higher than reactivity versus T2 cells pulsed with the negative control HIV-nef190-198 peptide) | + (Human responses were designated as + if T cell reactivity against T2 cells presenting the indicated peptide (IFN-γ ELISA) was >30 pg/ml and more than 2 fold higher than reactivity versus T2 cells pulsed with the negative control HIV-nef190-198 peptide) | + (Human responses were designated as + if T cell reactivity against T2 cells presenting the indicated peptide (IFN-γ ELISA) was >30 pg/ml and more than 2 fold higher than reactivity versus T2 cells pulsed with the negative control HIV-nef190-198 peptide) |  |  | 
PSMA: PSMA-derived peptide 441-450 pulsed onto DC or DC.IL12 (LLQERGVAYI; listed as Homo sapiens) |  |  | + (Human responses were designated as + if T cell reactivity against T2 cells presenting the indicated peptide (IFN-γ ELISA) was >30 pg/ml and more than 2 fold higher than reactivity versus T2 cells pulsed with the negative control HIV-nef190-198 peptide) |  | - | minimal protection |  |  |  | + (Human responses were designated as + if T cell reactivity against T2 cells presenting the indicated peptide (IFN-γ ELISA) was >30 pg/ml and more than 2 fold higher than reactivity versus T2 cells pulsed with the negative control HIV-nef190-198 peptide) |  | 
VEGFR1: VEGFR1-derived peptide 770-778 pulsed onto DC or DC.IL12 (TLFWLLLTL; listed as Homo sapiens) |  |  | + (Human responses were designated as + if T cell reactivity against T2 cells presenting the indicated peptide (IFN-γ ELISA) was >30 pg/ml and more than 2 fold higher than reactivity versus T2 cells pulsed with the negative control HIV-nef190-198 peptide) |  | +/- (+/-, p < 0.05 versus DC only for 2 consecutive time points) | minimal protection |  |  |  | + (Human responses were designated as + if T cell reactivity against T2 cells presenting the indicated peptide (IFN-γ ELISA) was >30 pg/ml and more than 2 fold higher than reactivity versus T2 cells pulsed with the negative control HIV-nef190-198 peptide) | + (Human responses were designated as + if T cell reactivity against T2 cells presenting the indicated peptide (IFN-γ ELISA) was >30 pg/ml and more than 2 fold higher than reactivity versus T2 cells pulsed with the negative control HIV-nef190-198 peptide) | + (Human responses were designated as + if T cell reactivity against T2 cells presenting the indicated peptide (IFN-γ ELISA) was >30 pg/ml and more than 2 fold higher than reactivity versus T2 cells pulsed with the negative control HIV-nef190-198 peptide)
